Results published in patent US20260183407A1, “DYRK/CLK PROTACS AND USES THEREOF” (Arizona Board of Regents on Behalf of the University of …, priority 2022, published 2026).

Key:
DYRK1B [1] = biological target: T1, DYRK1B (Homo sapiens, UniProt Q9Y463); test: HiBiT split luciferase assay of targeted degradation of DYRK1B in Flp-In T-REx 293 cells; assay type: cell-based; conditions: 300 nM compound, 24 h, HiBiT-tagged DYRK1B in Flp-In T-REx 293 cells, normalized to vehicle; read-out: Relative Degradation at 300 nM DYRK1B
T1 construct: purchased Eurofins; host or cells: E. coli BL21-derived (T7 phage display) or HEK-293
T1 sequence (Q9Y463 whole entry, species assumed): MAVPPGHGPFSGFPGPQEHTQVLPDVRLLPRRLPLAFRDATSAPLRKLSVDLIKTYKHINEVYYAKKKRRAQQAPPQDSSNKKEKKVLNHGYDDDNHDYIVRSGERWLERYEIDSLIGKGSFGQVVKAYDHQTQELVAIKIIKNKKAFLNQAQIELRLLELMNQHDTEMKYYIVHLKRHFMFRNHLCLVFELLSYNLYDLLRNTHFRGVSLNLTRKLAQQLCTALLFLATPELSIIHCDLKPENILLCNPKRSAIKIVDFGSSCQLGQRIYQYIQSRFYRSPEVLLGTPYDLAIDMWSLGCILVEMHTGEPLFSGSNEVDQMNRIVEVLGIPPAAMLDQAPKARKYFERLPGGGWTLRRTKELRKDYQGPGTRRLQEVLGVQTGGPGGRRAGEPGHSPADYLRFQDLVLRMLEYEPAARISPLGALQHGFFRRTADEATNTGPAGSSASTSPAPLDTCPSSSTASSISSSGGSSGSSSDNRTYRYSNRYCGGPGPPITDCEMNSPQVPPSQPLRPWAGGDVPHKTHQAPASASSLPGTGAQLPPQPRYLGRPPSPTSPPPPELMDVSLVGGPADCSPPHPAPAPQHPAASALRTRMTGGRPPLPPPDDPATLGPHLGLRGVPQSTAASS
From the text: (§1) The Flp-In T-REx 293 Cell Line and the pcDNA5/FRT/TO vector (Invitrogen) were used to generate stable cell clones for tetracyclin-inducible expression of DYRK1A and DYRK1B. These cells contain a single stably integrated Flp recognition target (FRT) site, which allows for site-specific integration of the expression cassette by the Flp (Flippase) recombinase. DYRK1 constructs were designed to contain a C-terminal HiBiT tag for quantitative detection of HiBiT-tagged proteins in cellular lysates with the help a split luciferase assay (Nano-Glo HiBiT Lytic Detection System, Promega). To monitor the targeted degradation of DYRK1A or DYRK1B, cells were seeded in 96-well plates (10,000 cells/per well) and treated with doxycyclineinal concentration 2 μg/ml) to induce DYRK1 expression. Compounds with presumed PROTAC activity were administered 24 h after seeding. After further incubation for 24 h, cells were grossly and microscopically inspected for overt toxicity. Cells were lysed in 100 μL ice-cold passive lysis buffer (PLB, Promega) by orbital shaking (30 min on ice) before lysates were centrifuged in PCR tube (20 min 20,000 g, RT). A 10 μl aliquot of the supernatant was subjected to the HiBiT lytic assay. Luminescence was quantified in an Orion Microplate luminometer (Berthold Detection System, Germany). All compounds were tested in duplicate or triplicate wells (technical replicates) and at least two independent experiments. Relative degradation was calculated by normalization to vehicle-treated control samples.

DYRK1A [2] = biological target: T2, DYRK1A (Homo sapiens, UniProt Q13627); test: HiBiT split luciferase assay of targeted degradation of DYRK1A in Flp-In T-REx 293 cells; assay type: cell-based; conditions: 300 nM compound, 24 h, HiBiT-tagged DYRK1A in Flp-In T-REx 293 cells, normalized to vehicle; read-out: Relative Degradation at 300 nM DYRK1A
T2 construct: purchased Eurofins; host or cells: E. coli BL21-derived (T7 phage display) or HEK-293
From the text: as §1

DYRK1A [3] = biological target: T2, DYRK1A; test: KdELECT kinase binding assay (Eurofins), DYRK1A; conditions: 11-point 3-fold dilution series, qPCR readout; read-out: Binding Affinity (Kd) DYRK1A
Experimental: (§2) KDs were obtained from Eurofins who used the following procedure: Kinase tagged T7 phase strains were prepared in an E. coli host derived from the BL21 strain. E. coli were grown to log-phase and infected with T7 phage and incubated with shaking at 32° C. until lysis. The lysates were centrifuged and filtered to remove cell debris. The remaining kinases were produced in HEK-293 cells and subsequently tagged with DNA for qPCR detection. Streptavidin-coated magnetic beads were treated with biotinylated small molecule ligands for 30 minutes at room temperature to generate affinity resins for kinase assays. The liganded beads were blocked with excess biotin and washed with locking buffer (SeaBlock (Pierce), 1% BSA, 0.05% Tween 20, 1 mM DTT) to remove unbound ligand and to reduce non-specific binding. Binding reactions were assembled by combining kinases, liganded affinity beads, and test compounds in 1× binding buffer (20% SeaBlock, 0.17× PBS, 0.05% Tween 20, 6 mM DTT). Test compounds were prepared as 111X stocks in 100% DMSO. Kds were determined using a 11-poin 3-fold compound dilution series with three DMSO control points. All compounds for Kd measurements are distributed by acoustic transfer (non-contact dispensing) in 100% DMSO. The compounds were then diluted directly into the assays such that the final concentration of DMSO was 0.9%. All reactions performed in polypropylene 384-well plate. Each was a final volume of 0.02 mL. The assay plates were incubated at room temperature with shaking for 1 hour and the affinity beads were washed with wash buffer (1×PBS, 0.05% Tween 20). The beads were then resuspended in elution buffer (1X PBS, 0.05% Tween 20, 0.5 µM nonbiotinylated affinity ligand) and incubated at room temperature with shaking for 30 minutes. The kinase concentration in the eluates was measured by qPCR.

DYRK1B [4] = biological target: T1, DYRK1B; test: KdELECT kinase binding assay (Eurofins), DYRK1B; conditions: 11-point 3-fold dilution series, qPCR readout; read-out: Binding Affinity (Kd) DYRK1B
Experimental: as §2

SMILES | inhibition at 0.3 µM (DYRK1B [1]) [%] | inhibition at 0.3 µM (DYRK1A [2]) [%] | Kd (DYRK1A [3]) [nM] | Kd (DYRK1B [4]) [nM]
Cc1ncsc1-c1ccc(CNC(=O)[C@@H]2C[C@@H](O)CN2C(=O)[C@@H](NC(=O)CCOCCOCCN2CCN(c3ccc(-n4c(C)nc5ccc(-c6ccnc(N)c6)nc54)cc3F)CC2)C(C)(C)C)cc1 [Compound 1, (2S,4R)-1-((S)-2-(3-(2-(2-(4-(4-(5-(2-aminopyridin-4-yl)-2-methyl-3H-imidazo[4,5-b]pyridin-3-yl)-2-fluorophenyl)piperazin-1-yl)ethoxy)ethoxy)propanamido)-3,3-dimethylbutanoyl)-4-hydroxy-N-(4-(4-methylthiazol-5-yl)benzyl)pyrrolidine-2-carboxamide] | < 30 | < 30 | < 10 | < 10
Cc1nc2ccc(-c3ccnc(N)c3)nc2n1-c1ccc(N2CCN(CCOCCOCCOCCOCCNc3cc4c(cc3F)C(=O)N(C3CCC(=O)NC3=O)C4=O)CC2)c(F)c1 (stereo not drawn) [Compound 13, 5-((14-(4-(4-(5-(2-aminopyridin-4-yl)-2-methyl-3H-imidazo[4,5-b]pyridin-3-yl)-2-fluorophenyl)piperazin-1-yl)-3,6,9,12-tetraoxatetradecyl)amino)-2-(2,6-dioxopiperidin-3-yl)-6-fluoroisoindoline-1,3-dione] |  | < 30 | 10 to 100 | 10 to 100
Cc1nc2ccc(-c3ccnc(N)c3)nc2n1-c1ccc(N2C[C@H]3CN(CC#Cc4ccc(N5CCC(C(=O)N6CCC(n7cc(CNc8cccc9c8C(=O)N(C8CCC(=O)NC8=O)C9=O)cn7)CC6)CC5)nc4)C[C@H]3C2)c(F)c1 (stereo partly drawn) [Compound 22, 4-(((1-(1-(1-(5-(3-((3aR,6aS)-5-(4-(5-(2-aminopyridin-4-yl)-2-methyl-3H-imidazo[4,5-b]pyridin-3-yl)-2-fluorophenyl)hexahydropyrrolo[3,4-c]pyrrol-2 (1H)-yl)prop-1-yn-1-yl)pyridin-2-yl)piperidine-4-carbonyl)piperidin-4-yl)-1H-pyrazol-4-yl)methyl)amino)-2-(2,6-dioxopiperidin-3-yl)isoindoline-1,3-dione] | < 30 | 30 to 60 |  | 
Cc1nc2ccc(-c3ccnc(N)c3)nc2n1-c1ccc(N2CCN(c3ccc(N4CCC(C(=O)N5CCC(n6cc(CNc7cccc8c7C(=O)N(C7CCC(=O)NC7=O)C8=O)cn6)CC5)CC4)nc3)CC2)c(F)c1 (stereo not drawn) [Compound 26, 4-(((1-(1-(1-(5-(4-(4-(5-(2-aminopyridin-4-yl)-2-methyl-3H-imidazo[4,5-b]pyridin-3-yl)-2-fluorophenyl)piperazin-1-yl)pyridin-2-yl)piperidine-4-carbonyl)piperidin-4-yl)-1H-pyrazol-4-yl)methyl)amino)-2-(2,6-dioxopiperidin-3-yl)isoindoline-1,3-dione] | 30 to 50 | > 60 |  | 
Cc1nc2ccc(-c3ccnc(N)c3)nc2n1-c1cc(Cl)c(N2CCN(CC#Cc3ccc(N4CCC(C(=O)N5CCC(n6cc(CNc7cccc8c7C(=O)N(C7CCC(=O)NC7=O)C8=O)cn6)CC5)CC4)nc3)CC2)c(Cl)c1 (stereo not drawn) [Compound 27, 4-(((1-(1-(1-(5-(3-(4-(4-(5-(2-aminopyridin-4-yl)-2-methyl-3H-imidazo[4,5-b]pyridin-3-yl)-2,6-dichlorophenyl)piperazin-1-yl)prop-1-yn-1-yl)pyridin-2-yl)piperidine-4-carbonyl)piperidin-4-yl)-1H-pyrazol-4-yl)methyl)amino)-2-(2,6-dioxopiperidin-3-yl)isoindoline-1,3-dione] | < 30 | > 60 |  | 
Cc1nc2ccc(-c3ccnc(N)c3)nc2n1-c1ccc(N2CCN(CC#Cc3ccc(C4(C(=O)N5CCC(n6cc(CNc7cccc8c7C(=O)N(C7CCC(=O)NC7=O)C8=O)cn6)CC5)CCC4)cc3)CC2)c(F)c1 (stereo not drawn) [Compound 28, 4-(((1-(1-(1-(4-(3-(4-(4-(5-(2-aminopyridin-4-yl)-2-methyl-3H-imidazo[4,5-b]pyridin-3-yl)-2-fluorophenyl)piperazin-1-yl)prop-1-yn-1-yl)phenyl)cyclobutane-1-carbonyl)piperidin-4-yl)-1H-pyrazol-4-yl)methyl)amino)-2-(2,6-dioxopiperidin-3-yl)isoindoline-1,3-dione] |  | > 60 | < 10 | 10 to 100
Cc1nc2ccc(-c3ccnc(N)c3)nc2n1-c1ccc(N2CCN(CC#Cc3ccc(N4CCC(C(=O)N5CCC(n6cc(CNc7cccc8c7C(=O)N(C7CCC(=O)N(C)C7=O)C8=O)cn6)CC5)CC4)nc3)CC2)c(F)c1 (stereo not drawn) [Compound 31, 4-(((1-(1-(1-(5-(3-(4-(4-(5-(2-aminopyridin-4-yl)-2-methyl-3H-imidazo[4,5-b]pyridin-3-yl)-2-fluorophenyl)piperazin-1-yl)prop-1-yn-1-yl)pyridin-2-yl)piperidine-4-carbonyl)piperidin-4-yl)-1H-pyrazol-4-yl)methyl)amino)-2-(1-methyl-2,6-dioxopiperidin-3-yl)isoindoline-1,3-dione] | < 30 | < 30 |  | 

Results, then the compound that gave them:

inhibition at 0.3 µM (DYRK1B [1]) [%] | inhibition at 0.3 µM (DYRK1A [2]) [%] | Kd (DYRK1A [3]) [nM] | Kd (DYRK1B [4]) [nM] | SMILES
 | < 30 | 10 to 100 | 10 to 100 | Cc1nc2ccc(-c3ccnc(N)c3)nc2n1-c1ccc(N2CCN(C(=O)CCN3CCN(Cc4ccc(CNc5cccc6c5CN(C5CCC(=O)NC5=O)C6=O)cc4)CC3)CC2)c(F)c1 (stereo not drawn) [Compound 11, 3-(4-((4-((4-(3-(4-(4-(5-(2-aminopyridin-4-yl)-2-methyl-3H-imidazo[4,5-b]pyridin-3-yl)-2-fluorophenyl)piperazin-1-yl)-3-oxopropyl)piperazin-1-yl)methyl)benzyl)amino)-1-oxoisoindolin-2-yl)piperidine-2,6-dione]
 | 30 to 60 | < 10 | < 10 | Cc1nc2ccc(-c3ccnc(N)c3)nc2n1-c1ccc(N2CCN(C(=O)CCCN3CCN(Cc4ccc(CNc5cccc6c5CN(C5CCC(=O)NC5=O)C6=O)cc4)CC3)CC2)c(F)c1 (stereo not drawn) [Compound 12, 3-(4-((4-((4-(4-(4-(4-(5-(2-aminopyridin-4-yl)-2-methyl-3H-imidazo[4,5-b]pyridin-3-yl)-2-fluorophenyl)piperazin-1-yl)-4-oxobutyl)piperazin-1-yl)methyl)benzyl)amino)-1-oxoisoindolin-2-yl)piperidine-2,6-dione]
 | < 30 | < 10 | < 10 | Cc1nc2ccc(-c3ccnc(N)c3)nc2n1-c1ccc(N2CCN(C(=O)CCCCN3CCN(Cc4ccc(CNc5cccc6c5CN(C5CCC(=O)NC5=O)C6=O)cc4)CC3)CC2)c(F)c1 (stereo not drawn) [Compound 14, 3-(4-((4-((4-(5-(4-(4-(5-(2-aminopyridin-4-yl)-2-methyl-3H-imidazo[4,5-b]pyridin-3-yl)-2-fluorophenyl)piperazin-1-yl)-5-oxopentyl)piperazin-1-yl)methyl)benzyl)amino)-1-oxoisoindolin-2-yl)piperidine-2,6-dione]
 | 30 to 60 | < 10 | < 10 | Cc1nc2ccc(-c3ccnc(N)c3)nc2n1-c1ccc(N2CCN(C(=O)CCCN3CCC(n4cc(CNc5cccc6c5C(=O)N(C5CCC(=O)NC5=O)C6=O)cn4)CC3)CC2)c(F)c1 (stereo not drawn) [Compound 16, 4-(((1-(1-(4-(4-(4-(5-(2-aminopyridin-4-yl)-2-methyl-3H-imidazo[4,5-b]pyridin-3-yl)-2-fluorophenyl)piperazin-1-yl)-4-oxobutyl)piperidin-4-yl)-1H-pyrazol-4-yl)methyl)amino)-2-(2,6-dioxopiperidin-3-yl)isoindoline-1,3-dione]
